The subject of the experiment is T1, α-galactosidase.
T1 construct: gene aglA; native extracellular enzyme; filtered culture supernatant used as crude enzyme, not purified
The experiment can be described thus: p-nitrophenol release at […] nm, Michaelis-Menten fit (GraphPad Prism […]). It is filed as biochemical, Aspergillus niger. Conditions: free enzyme (crude culture supernatant); 50 mM acetate buffer pH 5.5; 37 °C; 10 min; 0.3 to 2.2 mM substrate.

For `O=[N+]([O-])c1ccc(O[C@H]2O[C@H](CO)[C@H](O)[C@H](O)[C@H]2O)cc1` [p-Nitrophenyl α-D-galactopyranoside], the Michaelis constant (Km) (commonly the substrate concentration at which the rate is half of its maximum) is 300 ± 20 µM.

Source of the values: article PMC7956481, “Carrier-Free Immobilization of α-Galactosidase as Nano-Biocatalysts for Synthesizing Prebiotic α-Galacto-Oligosaccharides” (Molecules, 2021).
